Calls of active or inactive are those of the source. No cut-off for these calls is given here.
Legend:
PC-3 = experiment: Antiproliferative activity against AR-deficient human PC3 cells assessed as reduction in cell viability after 24 hrs by CCK-8 assay; type: functional, cell-based; settings: PC-3, 24 h
[1] = Antiproliferative activity against AR-rich human LNCaP-hr cells assessed as reduction in cell viability after 24 hrs by CCK-8 assay; type: functional
[2] = molecular target: T1, Androgen receptor (Homo sapiens) (UniProt P10275); settings: at 10 µM
T1 sequence (whole entry): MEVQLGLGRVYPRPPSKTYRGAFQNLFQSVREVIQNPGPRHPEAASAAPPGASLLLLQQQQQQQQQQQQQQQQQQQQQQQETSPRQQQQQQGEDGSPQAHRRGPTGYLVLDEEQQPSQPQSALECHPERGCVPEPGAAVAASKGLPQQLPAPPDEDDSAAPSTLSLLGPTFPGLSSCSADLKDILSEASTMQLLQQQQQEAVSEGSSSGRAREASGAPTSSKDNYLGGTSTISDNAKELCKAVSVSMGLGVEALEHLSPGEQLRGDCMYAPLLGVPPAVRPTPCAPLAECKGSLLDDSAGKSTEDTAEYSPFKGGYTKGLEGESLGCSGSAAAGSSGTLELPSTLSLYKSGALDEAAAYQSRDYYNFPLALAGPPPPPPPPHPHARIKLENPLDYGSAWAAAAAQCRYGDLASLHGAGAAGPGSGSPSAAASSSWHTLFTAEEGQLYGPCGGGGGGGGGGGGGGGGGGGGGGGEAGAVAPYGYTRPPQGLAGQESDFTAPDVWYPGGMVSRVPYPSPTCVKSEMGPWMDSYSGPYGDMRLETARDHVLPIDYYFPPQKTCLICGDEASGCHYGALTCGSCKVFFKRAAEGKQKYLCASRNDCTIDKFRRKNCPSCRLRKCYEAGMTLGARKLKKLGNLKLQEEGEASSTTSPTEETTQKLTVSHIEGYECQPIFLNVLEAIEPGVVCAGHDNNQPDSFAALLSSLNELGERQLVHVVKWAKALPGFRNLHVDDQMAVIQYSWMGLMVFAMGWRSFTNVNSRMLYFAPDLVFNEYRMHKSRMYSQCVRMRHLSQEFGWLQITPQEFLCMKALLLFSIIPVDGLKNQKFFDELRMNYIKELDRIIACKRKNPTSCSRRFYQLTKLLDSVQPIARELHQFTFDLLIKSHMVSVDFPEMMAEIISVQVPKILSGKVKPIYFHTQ

Androgen receptor = molecular target: T2, Androgen receptor (Rattus norvegicus, UniProt P15207); experiment: Displacement of fluormone-AL Green from His-tagged/GST-fused recombinant rat androgen receptor LBD expressed in insect cells measured after 4 hrs by fluorescence polarization assay
T2 sequence (P15207 whole entry): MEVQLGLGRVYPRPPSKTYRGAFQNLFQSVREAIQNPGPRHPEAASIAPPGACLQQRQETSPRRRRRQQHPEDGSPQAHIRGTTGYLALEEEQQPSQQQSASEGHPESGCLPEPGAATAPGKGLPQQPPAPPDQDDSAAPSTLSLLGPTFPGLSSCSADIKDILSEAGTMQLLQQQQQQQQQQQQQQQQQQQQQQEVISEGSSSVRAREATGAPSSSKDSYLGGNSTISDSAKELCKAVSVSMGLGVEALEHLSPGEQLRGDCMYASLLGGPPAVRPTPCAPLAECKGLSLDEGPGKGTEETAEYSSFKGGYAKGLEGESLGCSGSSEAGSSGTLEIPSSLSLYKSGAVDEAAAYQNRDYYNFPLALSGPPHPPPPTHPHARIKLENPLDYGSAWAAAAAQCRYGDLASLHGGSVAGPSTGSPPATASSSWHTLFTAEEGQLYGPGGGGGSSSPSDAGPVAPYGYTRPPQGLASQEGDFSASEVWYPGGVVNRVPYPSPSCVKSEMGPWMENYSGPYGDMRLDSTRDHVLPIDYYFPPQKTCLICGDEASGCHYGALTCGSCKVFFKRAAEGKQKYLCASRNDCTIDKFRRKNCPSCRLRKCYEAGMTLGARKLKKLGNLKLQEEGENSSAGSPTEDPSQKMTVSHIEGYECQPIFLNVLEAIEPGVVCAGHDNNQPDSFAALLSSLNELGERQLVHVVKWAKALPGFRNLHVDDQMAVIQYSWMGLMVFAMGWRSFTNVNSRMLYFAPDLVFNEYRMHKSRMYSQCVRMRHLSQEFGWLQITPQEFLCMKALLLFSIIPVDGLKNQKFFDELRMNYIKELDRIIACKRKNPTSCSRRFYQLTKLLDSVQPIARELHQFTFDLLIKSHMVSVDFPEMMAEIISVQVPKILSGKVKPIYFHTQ

| Compound | IC50 (PC-3) [µM] | IC50 [1] [µM] | inhibition [2] | IC50 (Androgen receptor) [µM] |
| --- | --- | --- | --- | --- |
| Cc1ccc(Cl)cc1N1CCN(c2cc(=O)oc3c2ccc2ccccc23)CC1 | > 200 | 15.3 | 48.3% | – |
| O=c1cc(N2CCN(c3cccc(Cl)c3)CC2)c2ccc3ccccc3c2o1 | 165 | 2.9 | 40.1% | – |
| O=c1cc(N2CCN(c3ccc(C(F)(F)F)cc3)CC2)c2ccc3ccccc3c2o1 | > 200 | 12.3 | 20.7% | – |
| O=c1cc(N2CCN(Cc3ccccc3)CC2)c2ccc3ccccc3c2o1 | > 200 | 0.52 | 72.1% | 0.55 |
| O=c1cc(N2CCN(c3ccc(Cl)cc3)CC2)c2ccc3ccccc3c2o1 | > 200 | 1.3 | 53.7% | 2.56 |
| Cc1cccc(N2CCN(c3cc(=O)oc4c3ccc3ccccc34)CC2)c1 | 54.1 | 32.5 | 45.5% | – |
| O=c1cc(N2CCN(c3ccc(F)cc3)CC2)c2ccc3ccccc3c2o1 | > 200 | 19.3 | 43.5% | – |
| CC(C)(C)NC(=O)[C@H]1CC[C@H]2[C@@H]3CC[C@H]4NC(=O)C=C[C@]4(C)[C@H]3CC[C@]12C [FINASTERIDE] | – | 14.5 | – | – |
| O=c1cc(N2CCN(c3ccccc3Cl)CC2)c2ccc3ccccc3c2o1 | > 200 | 9.69 | 51.2% | 3.87 |
| C[C@]1(O)CC[C@H]2[C@@H]3CCC4=CC(=O)CCC4=C3C=C[C@@]21C | – | – | inactive | – |
| COc1ccccc1N1CCN(c2cc(=O)oc3c2ccc2ccccc23)CC1 | > 200 | 1.7 | 61.2% | 1.26 |
| O=c1cc(N2CCN(c3ccccn3)CC2)c2ccc3ccccc3c2o1 | 150 | 1.92 | 54.5% | 2.21 |
| O=c1cc(N2CCN(c3ccc(Br)cc3)CC2)c2ccc3ccccc3c2o1 | > 200 | > 50 | 25.1% | – |
| O=c1cc(N2CCN(C(c3ccc(F)cc3)c3ccc(F)cc3)CC2)c2ccc3ccccc3c2o1 | > 200 | 1.02 | 70.3% | 0.85 |
| CCOc1ccccc1N1CCN(c2cc(=O)oc3c2ccc2ccccc23)CC1 | > 200 | 1.43 | 58.5% | 2.08 |
| O=c1cc(N2CCN(c3ccccc3C(F)(F)F)CC2)c2ccc3ccccc3c2o1 | 108 | 1.14 | 65.4% | 1.04 |
| COc1ccc(N2CCN(c3cc(=O)oc4c3ccc3ccccc34)CC2)cc1 | 117 | 5.6 | 59.1% | 1.56 |
| Cc1ccc(N2CCN(c3cc(=O)oc4c3ccc3ccccc34)CC2)cc1 | 136 | 7.7 | 53.3% | 3.02 |
| Cc1ccccc1N1CCN(c2cc(=O)oc3c2ccc2ccccc23)CC1 | 109 | 4.43 | 53.1% | 3.54 |
| COc1cccc(N2CCN(c3cc(=O)oc4c3ccc3ccccc34)CC2)c1 | > 200 | 13.3 | 41.2% | – |
| N#Cc1ccc(N2CCN(c3cc(=O)oc4c3ccc3ccccc34)CC2)c(F)c1 | > 200 | 37.8 | 30.2% | – |
| O=c1cc(N2CCN(c3ccc(F)cc3F)CC2)c2ccc3ccccc3c2o1 | 122 | > 50 | 45.1% | – |
| O=c1cc(N2CCN(c3ccccc3F)CC2)c2ccc3ccccc3c2o1 | 124 | 1.89 | 52.3% | 3.72 |
| O=c1cc(N2CCN(c3ccccc3)CC2)c2ccc3ccccc3c2o1 | > 200 | 5.05 | 51.2% | 3.94 |

— ChEMBL document CHEMBL4396966, “Synthesis, biological evaluation and molecular docking of 4-Amino-2H-benzo[h]chromen-2-one (ABO) analogs containing the piperazine moiety” (Bioorg Med Chem, 2019)
